Measured values as given in patent publication US6881584B1, “Infrared thermography” (SmithKline Beecham Corporation, priority 1998, dated 2005).

Test system: liver
Experiment: Liver thermogenesis in AKR mice with IR transparent adhesive
Assay type: in vivo
Conditions: AKR mice on high-fat diet, 75 mg/kg i.g., 5 hours
Description: FIG. 31. Liver thermogenesis in AKR mice 5 hours after treatment with the nucleoside reverse transcriptase inhibitor (NRTI) D4T detected by IR thermography. Male AKR mice were housed 5 per cage and maintained on high fat diet (58% kCals as fat) and water ad libitum. Mice were dosed at 0, 1, 10, 75, and 100 mg/kg D4T in water vehicle (0.5 mL i.g.; n=10 per dose) and anesthetized using isoflurane as described above 5 hours after treatment. The abdomens of the anesthetized mice were surgically opened to expose the liver and Bioclusive adhesive was placed over the entire exposed area. IR images of the liver region were acquired and analyzed as detailed in FIG. 28. […] Quantification of the IR signal depicted in the image is shown in the bottom left panel. Analysis of the dose response to D4T is shown in the panel to the right. Data shown are means±SEM for n=10 animals per group.
AKR mice fed a high-fat diet were treated with 75 mg/kg D4T, and their abdomens were surgically opened and covered with Bioclusive adhesive 5 hour later. […] This decrease is quantitated in the lower left panel of FIG. 31. Moreover, the dose-dependent effect of D4T on decreased liver temperature determined using IR thermography (FIG. 31, right panel) correlated well with the effect of D4T treatment on serum non-esterified fatty acid levels (r=0.91, data not shown).

Cc1cn([C@H]2C=C[C@@H](CO)O2)c(=O)[nH]c1=O [D4T]
liver temperature: decrease in temperature
